Assay results from patent publication US9018261B2, “Choline salt of an anti-inflammatory substituted cyclobutenedione compound” (Novartis AG, priority 2011, dated 2015).
Counter-ions that a name gives are not always drawn.

What was measured:
[1] = pharmacokinetic study in male beagle dogs (plasma concentrations); conditions: dog, in vivo, 0.3 mg/kg
[2] = hygroscopicity (amount of water absorbed); type: physicochemical
Source text: Furthermore, the hygroscopicity of the choline salt is much reduced compared with the free acid. The amount of water absorbed by the free acid is 2.4% and 2.8% by weight after 1 day at 80% and 92% humidity, respectively, and the amount of water absorbed by the choline salt is 0.7% and 0.6% by weight after 1 day at 80% and 92% humidity, respectively.

[3] = solubility in simulated gastric fluid; type: physicochemical
dissolution rate at pH 1 = type: physicochemical
Method: (§1) The choline salt has also a much improved dissolution rate at pH 1 and oral exposure when dosed at 10 mg/kg to male SPRAGUE DAWLEY® rats compared to the free acid form.

[4] = oral exposure in male SPRAGUE DAWLEY rats; type: in vivo; conditions: dosed at 10 mg/kg to male SPRAGUE DAWLEY rats
Method: as §1

[5] = conversion into free acid form in gastric acidic conditions; type: physicochemical
Source text: The result of this is poor bioavailability of 6-chloro-3-[2-(1-ethyl-propylamino)-3,4-dioxo-cyclobut-1-enylamino]-2-hydroxy-N-methoxy-N-methyl-benzenesulfonamide.

[6] = solubility in aqueous solution at pH 1.0-7.0; type: physicochemical; conditions: aqueous buffer, pH 1.0-7.0, as a free acid
Method: [drawing 1] is a weakly acidic compound and is practically insoluble in aqueous solution at pH 1.0-7.0 as a free acid (<0.005 mg/ml).

| Structure (SMILES) | systemic exposure after intravenous administration [1] | amount of water absorbed ([2]; after 1 day at 80% humidity) | amount of water absorbed ([2]; after 1 day at 92% humidity) | solubility ([3]; simulated gastric fluid at pH 1.2) | solubility in simulated gastric fluid compared to other salts ([3]; vs sodium, calcium, N,N-dimethyl-2-aminoethanol and N-(2-hydroxyethyl)pyrrolidine salts) | dissolution rate compared to the free acid form (dissolution rate at pH 1) | oral exposure compared to the free acid form [4] | conversion into the free acid form [5] | solubility [6] |
| --- | --- | --- | --- | --- | --- | --- | --- | --- | --- |
| CCC(CC)Nc1c(Nc2ccc(Cl)c(S(=O)(=O)N(C)OC)c2O)c(=O)c1=O [choline salt, 6-chloro-3-[2-(1-ethyl-propylamino)-3,4-dioxo-cyclobut-1-enylamino]-2-hydroxy-N-methoxy-N-methyl-benzenesulfonamide choline] | 912 ± 126 ng·h/mL | 0.7 % by weight | 0.6 % by weight | 8020 µg/mL | significantly improved | much improved | much improved | readily converts |  |
| CCC(CC)Nc1c(Nc2ccc(Cl)c(S(=O)(=O)N(C)OC)c2O)c(=O)c1=O [free acid, 6-chloro-3-[2-(1-ethyl-propylamino)-3,4-dioxo-cyclobut-1-enylamino]-2-hydroxy-N-methoxy-N-methyl-benzenesulfonamide] |  | 2.4 % by weight | 2.8 % by weight |  |  |  |  |  | < 5 µg/mL |
